According to patent US20230013669A1, “Antibacterial Treatment Using a Cannabinoid and an Active Agent” (priority 2019, published 2023):
Converted amounts (≈) assume the structure as drawn. Read-outs that look alike come from different tables or passages of the source.

Tests used:
[1] = tested on: Klebsiella pneumoniae ATCC 13883 (GN_003 / GN_004); experiment: MIC micro-broth dilution assay (Example 1 method); format: cell-based
[2] = tested on: Acinetobacter baumannii 03.021.1 (GN_038), Colistin resistant; experiment: Synergy of cannabidiol with cell-wall disrupting agent (CBD MIC in combination, FICI); format: cell-based; settings: for MIC: Acinetobacter baumannii
Description: The compounds were stored short term at 4° C.
Analysis was performed using Microsoft Excel.

[3] = tested on: Enterobacter cloacae CI Patercon BoxNo: 79 (GN_016), MDR; experiment: as above; settings: for MIC: Enterobacter cloacae
[4] = Example 9, GN_038, listed as CBD
[5] = Example 8, GN_016, listed as CBD

In the case of `C=C(C)C1CCC(C)=CC1c1c(O)cc(CCCCC)cc1O` (stereo not shown) [Cannabidiol, 2-[3-methyl-6-(1-methylethenyl)-2-cyclohexen-1-yl]-5-pentyl-1,3-benzenediol], the MIC ([1]; ATCC 13883 / ATCC 700603, CBD alone, Klebsiella pneumoniae ATCC 700603 as printed in the table, read-out: CBD MIC) is reported as 256 mg/L (≈ 814 µM), the “Minimum Inhibitory Concentration (MIC)” value ([1]; Example 4 Table 15, GN_003, compound alone, replicates) is reported as over 256 mg/L and the “Minimal Inhibitory Concentration (MIC)” value ([1]; Example 7 Table 27, GN_004, compound alone, replicates) is reported as over 256 mg/L. The “CBD MIC” value ([1]; Klebsiella pneumoniae ATCC 700603 (so in the source), CBD alone) was 256 mg/L, the MIC ([1]; Klebsiella pneumoniae, ATCC13883, Example 4 Table 15, GN_003, compound alone, replicates, read-out: Minimum Inhibitory Concentration (MIC)) was over 256 mg/L and the MIC ([1]; Klebsiella pneumoniae, ATCC13883, Example 7 Table 27, GN_004, compound alone, replicates, read-out: Minimal Inhibitory Concentration (MIC)) was over 256 mg/L. It also gave an MIC ([2]; read-out: CBD MIC with MCC_00636 at concentration 0.25 μg/mL, Example 8, GN_038) of 2 mg/L, an MIC ([2]; read-out: CBD MIC with MCC_00636 at concentration 0.5 μg/mL, Example 8, GN_038) of 0.000977 mg/L and an MIC ([2]; read-out: CBD MIC with MCC_00636 at concentration […], Example 8, GN_038) of 32 mg/L. The MIC ([2]; read-out: CBD MIC with MCC_09222 at concentration 8 μg/mL, Example 9, GN_038) was 4 mg/L, the MIC ([2]; read-out: CBD MIC with MCC_09222 at concentration 16 μg/mL, Example 9, GN_038) was 2 mg/L and the MIC ([2]; read-out: CBD MIC with MCC_09222 at concentration 32 μg/mL, Example 9, GN_038) was 1 mg/L. The MIC ([2]; read-out: CBD MIC with MCC_09222 at concentration 64 μg/mL, Example 9, GN_038) was 0.000977 mg/L, the MIC ([2]; read-out: CBD MIC with MCC_09222 at concentration 128 μg/mL, Example 9, GN_038) was 0.000977 mg/L and the “cannabidiol combined with Polymyxin B: synergy” value ([2]; Example 8) was “synergy”. The “CBD MIC with MCC_00636 at concentration 0.25 μg/mL” value ([2]; Example 8, GN_038, listed as CBD) was 4 mg/L, the “cannabidiol in combination with MCC_09222: synergy” value ([2]; Example 9) was “synergistic effect” and the “CBD MIC with MCC_09222 at concentration 8 μg/mL” value [2, 4] was 2 mg/L. The “CBD MIC with MCC_09222 at concentration 32 μg/mL” value [2, 4] was 0.5 mg/L, the MIC ([3]; read-out: CBD MIC with MCC_00636 at concentration 0.25 μg/mL, Example 8, GN_016) was 2 mg/L and the MIC ([3]; read-out: CBD MIC with MCC_00636 at concentration 0.5 μg/mL, Example 8, GN_016) was 0.5 mg/L. It also gave an MIC ([3]; read-out: CBD MIC with MCC_00636 at concentration 1 μg/mL, Example 8, GN_016) of 0.5 mg/L, an MIC ([3]; read-out: CBD MIC with MCC_00636 at concentration 2 μg/mL, Example 8, GN_016) of 0.5 mg/L and an MIC ([3]; read-out: CBD MIC with MCC_00636 at concentration 4 μg/mL, Example 8, GN_016) of 0.5 mg/L. For the same compound, the MIC ([3]; read-out: CBD MIC with MCC_00636 at concentration 8 μg/mL, Example 8, GN_016) was 0.000977 mg/L, the MIC ([3]; read-out: CBD MIC with MCC_09222 at concentration 8 μg/mL, Example 9, GN_016) was 2 mg/L and the MIC ([3]; read-out: CBD MIC with MCC_09222 at concentration 16 μg/mL, Example 9, GN_016) was 1 mg/L. The MIC ([3]; read-out: CBD MIC with MCC_09222 at concentration 32 μg/mL, Example 9, GN_016) was 1 mg/L, the MIC ([3]; read-out: CBD MIC with MCC_09222 at concentration 64 μg/mL, Example 9, GN_016) was 1 mg/L and the MIC ([3]; read-out: CBD MIC with MCC_09222 at concentration 128 μg/mL, Example 9, GN_016) was 1 mg/L. For the same compound, the “cannabidiol combined with Polymyxin B: synergy” value ([3]; Example 8) was “synergy”, the “CBD MIC with MCC_00636 at concentration 0.5 μg/mL” value [3, 5] was 1 mg/L and the “CBD MIC with MCC_00636 at concentration 1 μg/mL” value [3, 5] was 1 mg/L. The “CBD MIC with MCC_00636 at concentration 2 μg/mL” value [3, 5] was 1 mg/L, the “CBD MIC with MCC_00636 at concentration 4 μg/mL” value [3, 5] was 1 mg/L and the “cannabidiol in combination with MCC_09222: synergy” value ([3]; Example 9) was “synergistic effect”. The “CBD MIC with MCC_09222 at concentration 16 μg/mL” value ([3]; Example 9, GN_016, listed as CBD) was 2 mg/L.
